Read-outs that look alike come from different tables or passages of the source.
Columns and labels:
Format in all cases: cell-based
[1] = target: T1, hGIPR (Homo sapiens, UniProt P48546); experiment: Functional cAMP formation (HTRF) in HEK-293 clonal cells expressing hGIPR, 0.1% bovine casein, without or with 1.0% human serum albumin; conditions: for Emax: percent of maximal response to GIP(1-42)NH2
T1 construct: expressed in transfected cells
T1 sequence (P48546 22-466): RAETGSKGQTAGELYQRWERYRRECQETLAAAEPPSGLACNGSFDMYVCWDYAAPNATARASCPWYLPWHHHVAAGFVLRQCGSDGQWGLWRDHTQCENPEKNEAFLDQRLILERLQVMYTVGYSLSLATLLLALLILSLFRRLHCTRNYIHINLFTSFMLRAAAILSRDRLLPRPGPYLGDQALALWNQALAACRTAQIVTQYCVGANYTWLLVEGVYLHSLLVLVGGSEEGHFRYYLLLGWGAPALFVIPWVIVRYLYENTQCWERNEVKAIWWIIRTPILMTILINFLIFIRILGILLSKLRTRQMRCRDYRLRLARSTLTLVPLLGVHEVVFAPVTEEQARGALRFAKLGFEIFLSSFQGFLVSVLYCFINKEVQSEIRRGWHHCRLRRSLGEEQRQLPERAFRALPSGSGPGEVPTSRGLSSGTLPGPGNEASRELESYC
Outline: (§1)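 Readings of the HTRF 665/620 nm ratio, which falls as cAMP rises, were converted to nM cAMP using a standard curve after 30 min peptide exposure at 37° C.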

[2] = target: T2, hGCGR (Homo sapiens, UniProt P47871); experiment: Functional cAMP formation (HTRF) in HEK-293 clonal cells expressing hGCGR, 0.1% bovine casein, without or with 1.0% human serum albumin
T2 construct: expressed in transfected cells
T2 sequence (P47871 26-477): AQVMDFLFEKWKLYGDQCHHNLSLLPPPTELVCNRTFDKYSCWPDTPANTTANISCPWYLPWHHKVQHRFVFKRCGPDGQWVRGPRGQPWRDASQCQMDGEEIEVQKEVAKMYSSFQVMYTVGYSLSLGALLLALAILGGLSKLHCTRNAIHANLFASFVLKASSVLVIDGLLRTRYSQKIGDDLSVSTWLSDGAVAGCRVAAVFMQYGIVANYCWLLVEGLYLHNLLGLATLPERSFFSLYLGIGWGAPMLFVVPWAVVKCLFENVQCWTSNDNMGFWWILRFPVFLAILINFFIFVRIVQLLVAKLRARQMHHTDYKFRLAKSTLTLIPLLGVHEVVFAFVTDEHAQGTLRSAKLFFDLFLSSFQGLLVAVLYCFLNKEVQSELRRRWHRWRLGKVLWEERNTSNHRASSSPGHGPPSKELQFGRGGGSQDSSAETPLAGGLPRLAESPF
Outline: as §1

[3] = target: hGLP-1R (Homo sapiens, UniProt P43220); experiment: Functional cAMP formation (HTRF) in HEK-293 clonal cells expressing hGLP-1R, 0.1% bovine casein, without or with 1.0% human serum albumin; set-up: expressed in transfected cells; conditions: for Emax: percent of maximal response to GLP-1(7-36)NH2; for EC50: geometric mean
Chain of hGLP-1R (P43220 24-463): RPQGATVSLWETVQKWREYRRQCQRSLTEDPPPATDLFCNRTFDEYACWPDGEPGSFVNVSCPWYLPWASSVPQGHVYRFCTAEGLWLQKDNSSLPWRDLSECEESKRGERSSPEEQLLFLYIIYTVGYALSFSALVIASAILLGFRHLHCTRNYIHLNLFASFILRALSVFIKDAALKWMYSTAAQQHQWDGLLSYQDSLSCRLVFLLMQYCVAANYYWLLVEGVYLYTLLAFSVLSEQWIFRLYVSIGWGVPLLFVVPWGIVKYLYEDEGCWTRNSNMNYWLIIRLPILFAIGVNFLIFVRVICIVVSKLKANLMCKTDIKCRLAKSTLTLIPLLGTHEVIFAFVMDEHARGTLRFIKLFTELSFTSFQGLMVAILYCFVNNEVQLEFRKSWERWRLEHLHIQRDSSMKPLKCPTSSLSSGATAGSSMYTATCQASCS
Outline: as §1

[4] = HEK293, 0.1% bovine casein and 1.0% human serum albumin, 37° C., read-out: hGIPR Emax, % ± SEM
[5] = 0.1% bovine casein and 1.0% human serum albumin, 37° C., geometric mean, read-out: hGCGR EC50, nM (SEM, n)
[6] = cAMP, incubated at 37° C., 0.1% bovine casein (no human serum albumin), geometric mean, read-out: hGCGR EC50, nM (SEM, n)

CC[C@H](C)[C@H](NC(=O)[C@H](CC(C)C)NC(=O)[C@](C)(Cc1ccc(O)cc1)NC(=O)[C@@H](CCC(=O)O)NC(=O)[C@@H](NC(=O)[C@H](Cc1ccccc1)NC(=O)[C@H](CCC(=O)O)NC(=O)C(C)(C)NC(=O)[C@H](CCC(N)=O)NC(=O)[C@H](C)NC(=O)[C@H](CCCCNC(=O)COCCOCCNC(=O)COCCOCCNC(=O)CC[C@H](NC(=O)CCCCCCCCCOc1ccc(C(=O)O)cc1)C(=O)O)NC(=O)[C@H](CCCN)NC(=O)[C@H](CC(=O)O)NC(=O)[C@H](CC(C)C)NC(=O)[C@](C)(CC(C)C)NC(=O)[C@@H](NC(=O)C(C)(C)NC(=O)[C@H](Cc1ccc(O)cc1)NC(=O)[C@H](CC(=O)O)NC(=O)[C@H](CO)NC(=O)[C@@H](NC(=O)[C@](C)(Cc1ccccc1F)NC(=O)[C@@H](NC(=O)CNC(=O)[C@H](CCC(=O)O)NC(=O)C(C)(C)NC(=O)[C@@H](N)Cc1ccc(O)cc1)[C@@H](C)O)[C@@H](C)O)[C@@H](C)CC)[C@@H](C)CC)C(=O)N[C@@H](CCCCNC(=O)COCCOCCNC(=O)COCCOCCNC(=O)CC[C@H](NC(=O)CCCCCCCCCOc1ccc(C(=O)O)cc1)C(=O)O)C(=O)NCC(=O)NCC(=O)N1CCC[C@H]1C(=O)N[C@@H](CO)C(=O)N[C@@H](CO)C(=O)NCC(=O)N[C@@H](C)C(=O)N1CCC[C@H]1C(=O)N1CCC[C@H]1C(=O)N1CCC[C@H]1C(=O)N[C@@H](CO)C(N)=O [Example 237]
Emax ([1]; HEK293, read-out: hGIPR Emax, % ± SEM, 0.1% bovine casein and 1.0% human serum albumin, 37° C.): 93.1% | EC50 ([1]; hGIPR EC50, nM (SEM, n), cAMP, incubated at 37° C., 0.1% bovine casein (no human serum albumin), geometric mean): 0.0186 nM | EC50 ([2]; hGCGR EC50, nM (SEM, n), 0.1% bovine casein and 1.0% human serum albumin, 37° C., geometric mean): > 9950 nM | EC50 ([2]; hGCGR EC50, nM (SEM, n), cAMP, incubated at 37° C., 0.1% bovine casein (no human serum albumin), geometric mean): > 9950 nM | Emax ([3]; HEK293, read-out: hGLP-1R Emax, % ± SEM, 0.1% bovine casein and 1.0% human serum albumin, 37° C.): 113% | EC50 ([3]; hGLP-1R EC50, nM (SEM, n), cAMP, incubated at 37° C., 0.1% bovine casein (no human serum albumin)): 0.633 nM

CC[C@H](C)[C@H](NC(=O)[C@H](CC(C)C)NC(=O)[C@](C)(Cc1ccc(O)cc1)NC(=O)[C@@H](CCC(=O)O)NC(=O)[C@@H](NC(=O)[C@H](Cc1ccccc1)NC(=O)[C@H](CCC(=O)O)NC(=O)C(C)(C)NC(=O)[C@H](CCC(N)=O)NC(=O)CNC(=O)[C@H](CCCCNC(=O)COCCOCCNC(=O)COCCOCCNC(=O)CC[C@H](NC(=O)CCCCCCCCCCCCC(=O)O)C(=O)O)NC(=O)[C@H](CCCN)NC(=O)[C@H](CC(=O)O)NC(=O)[C@H](CC(C)C)NC(=O)[C@](C)(CC(C)C)NC(=O)[C@@H](NC(=O)[C@H](CO)NC(=O)[C@H](Cc1ccncc1)NC(=O)[C@H](CC(=O)O)NC(=O)[C@H](CO)NC(=O)[C@@H](NC(=O)[C@](C)(Cc1ccccc1F)NC(=O)[C@@H](NC(=O)CNC(=O)[C@H](CCC(=O)O)NC(=O)C(C)(C)NC(=O)[C@@H](N)Cc1ccc(O)cc1)[C@@H](C)O)[C@@H](C)O)[C@@H](C)CC)[C@@H](C)CC)C(=O)N[C@@H](CCC(=O)O)C(=O)NCC(=O)NCC(=O)N[C@@H](CCCCNC(=O)COCCOCCNC(=O)COCCOCCNC(=O)CC[C@H](NC(=O)CCCCCCCCCCCCC(=O)O)C(=O)O)C(=O)N[C@@H](CO)C(=O)N[C@@H](CO)C(=O)NCC(=O)N[C@@H](C)C(=O)N1CCC[C@H]1C(=O)N1CCC[C@H]1C(=O)N1CCC[C@H]1C(=O)N[C@@H](CO)C(N)=O [Example 102]
Emax [1, 4]: 96.9% | EC50 [2, 5]: > 9950 nM | EC50 [2, 6]: > 9950 nM | EC50 ([3]; cAMP, incubated at 37° C., 0.1% bovine casein (no human serum albumin), read-out: hGLP-1R EC50, nM (SEM, n)): 19.1 nM

CC[C@H](C)[C@H](NC(=O)[C@H](CC(C)C)NC(=O)[C@](C)(Cc1ccc(O)cc1)NC(=O)[C@@H](CCC(=O)O)NC(=O)[C@@H](NC(=O)[C@H](Cc1ccccc1)NC(=O)[C@H](CCC(=O)O)NC(=O)C(C)(C)NC(=O)[C@H](CCC(N)=O)NC(=O)[C@H](C)NC(=O)[C@H](CCCCNC(=O)COCCOCCNC(=O)COCCOCCNC(=O)CCCCCCCCCOc1ccc(C(=O)O)cc1)NC(=O)[C@H](CCCN)NC(=O)[C@H](CC(=O)O)NC(=O)[C@H](CC(C)C)NC(=O)[C@](C)(CC(C)C)NC(=O)[C@@H](NC(=O)C(C)(C)NC(=O)[C@H](Cc1ccc(O)cc1)NC(=O)[C@H](CC(=O)O)NC(=O)[C@H](CO)NC(=O)[C@@H](NC(=O)[C@](C)(Cc1ccccc1F)NC(=O)[C@@H](NC(=O)CNC(=O)[C@H](CCC(=O)O)NC(=O)C(C)(C)NC(=O)[C@@H](N)Cc1ccc(O)cc1)[C@@H](C)O)[C@@H](C)O)[C@@H](C)CC)[C@@H](C)CC)C(=O)N[C@@H](CCCCNC(=O)COCCOCCNC(=O)COCCOCCNC(=O)CCCCCCCCCOc1ccc(C(=O)O)cc1)C(=O)NCC(=O)NCC(=O)N1CCC[C@H]1C(=O)N[C@@H](CO)C(=O)N[C@@H](CO)C(=O)NCC(=O)N[C@@H](C)C(=O)N1CCC[C@H]1C(=O)N1CCC[C@H]1C(=O)N1CCC[C@H]1C(=O)N[C@@H](CO)C(N)=O [Example 396]
Emax ([1]; HEK293, read-out: hGIPR Emax, % ± SEM, cAMP, 37° C., 0.1% bovine casein and 1.0% human serum albumin): 67.1% | Emax ([1]; HEK293, read-out: hGIPR Emax, % ± SEM, cAMP, 37° C., 0.1% bovine casein, arithmetic mean): 96.2% | EC50 ([1]; hGIPR EC50, nM (SEM, n), cAMP, 37° C., 0.1% bovine casein (no human serum albumin), geometric mean): 0.0113 nM | EC50 ([1]; hGIPR EC50, nM (SEM, n), cAMP, 37° C., 0.1% bovine casein and 1.0% human serum albumin, geometric mean (SEM, n)): 0.595 nM | EC50 ([2]; hGCGR EC50, nM (SEM, n), cAMP, 37° C., 0.1% bovine casein (no human serum albumin), geometric mean): > 9950 nM | EC50 ([2]; hGCGR EC50, nM (SEM, n), cAMP, 37° C., 0.1% bovine casein and 1.0% human serum albumin, geometric mean (SEM, n)): > 9950 nM | Emax ([3]; HEK293, read-out: hGLP-1R Emax, % ± SEM, cAMP, 37° C., 0.1% bovine casein and 1.0% human serum albumin): 94.4% | EC50 ([3]; hGLP-1R EC50, nM (SEM, n), cAMP, 37° C., 0.1% bovine casein (no human serum albumin)): 0.291 nM

CC[C@H](C)[C@H](NC(=O)[C@H](CC(C)C)NC(=O)[C@](C)(Cc1ccc(O)cc1)NC(=O)[C@@H](CCC(=O)O)NC(=O)[C@@H](NC(=O)[C@H](Cc1ccccc1)NC(=O)[C@H](CCCN)NC(=O)C(C)(C)NC(=O)[C@H](CCC(N)=O)NC(=O)[C@H](C)NC(=O)[C@H](CCCCNC(=O)COCCOCCNC(=O)COCCOCCNC(=O)CC[C@H](NC(=O)CCCCCCCCCCCCC(=O)O)C(=O)O)NC(=O)[C@H](CCCN)NC(=O)[C@H](CC(=O)O)NC(=O)[C@H](CC(C)C)NC(=O)[C@](C)(CC(C)C)NC(=O)[C@@H](NC(=O)[C@H](CO)NC(=O)[C@H](Cc1ccncc1)NC(=O)[C@H](CC(=O)O)NC(=O)[C@H](CO)NC(=O)[C@@H](NC(=O)[C@](C)(Cc1ccccc1F)NC(=O)[C@@H](NC(=O)CNC(=O)[C@H](CCC(=O)O)NC(=O)C(C)(C)NC(=O)[C@@H](N)Cc1ccc(O)cc1)[C@@H](C)O)[C@@H](C)O)[C@@H](C)CC)[C@@H](C)CC)C(=O)N[C@@H](CCC(=O)O)C(=O)NCC(=O)NCC(=O)N[C@@H](CCCCNC(=O)COCCOCCNC(=O)COCCOCCNC(=O)CC[C@H](NC(=O)CCCCCCCCCCCCC(=O)O)C(=O)O)C(=O)N[C@@H](CO)C(=O)N[C@@H](CO)C(=O)NCC(=O)N[C@@H](C)C(=O)N1CCC[C@H]1C(=O)N1CCC[C@H]1C(=O)N1CCC[C@H]1C(=O)N[C@@H](CO)C(N)=O [Example 150]
EC50 ([1]; 0.1% bovine casein and 1.0% human serum albumin, 37° C., geometric mean, read-out: hGIPR EC50, nM (SEM, n)): 0.35 nM | Emax [1, 4]: 81.3 ± 3.18% | EC50 [2, 5]: > 9950 nM | EC50 [2, 6]: > 9950 nM | EC50 ([3]; 0.1% bovine casein and 1.0% human serum albumin, 37° C., read-out: hGLP-1R EC50, nM (SEM, n)): 11 nM | Emax ([3]; HEK293, 0.1% bovine casein and 1.0% human serum albumin, 37° C., read-out: hGLP-1R Emax, % ± SEM): 100 ± 3.8%

Reference: patent publication US20230265151A1, “GIP/GLP1 CO-AGONIST COMPOUNDS” (priority 2020, published 2023)
